Test results as given in patent US20100227844A1, “CANNABINOID-1 RECEPTOR MODULATORS USEFUL FOR THE TREATMENT OF ALZHEIMER'S DISEASE” (priority 2007, published 2010).

Key:
[1] = biological target: recombinant human CB1 receptor (Homo sapiens, UniProt P21554); experiment: Cannabinoid Receptor-1 (CB1) Binding (IC50) Assay; conditions: [3H]CP-55940 0.6 nM, CHO cell membranes
[2] = biological target: recombinant human CB1 receptor expressed in CHO cells (Homo sapiens, UniProt P21554); experiment: Cannabinoid Receptor-1 (CB1) Functional Activity (EC50) Assay; assay type: cell-based; conditions: forskolin-stimulated intracellular cAMP
mice = conditions: Mazzola et al.; cited from earlier work
rodent models = conditions: naïve as well as scopolamine or Aβ-treated rodent models; Terranova et al.; cited from earlier work
[3] = system: rodent model of episodic memory; conditions: in combination with Donepezil; Wise et al.; cited from earlier work

Chain of recombinant human CB1 receptor (P21554 whole entry): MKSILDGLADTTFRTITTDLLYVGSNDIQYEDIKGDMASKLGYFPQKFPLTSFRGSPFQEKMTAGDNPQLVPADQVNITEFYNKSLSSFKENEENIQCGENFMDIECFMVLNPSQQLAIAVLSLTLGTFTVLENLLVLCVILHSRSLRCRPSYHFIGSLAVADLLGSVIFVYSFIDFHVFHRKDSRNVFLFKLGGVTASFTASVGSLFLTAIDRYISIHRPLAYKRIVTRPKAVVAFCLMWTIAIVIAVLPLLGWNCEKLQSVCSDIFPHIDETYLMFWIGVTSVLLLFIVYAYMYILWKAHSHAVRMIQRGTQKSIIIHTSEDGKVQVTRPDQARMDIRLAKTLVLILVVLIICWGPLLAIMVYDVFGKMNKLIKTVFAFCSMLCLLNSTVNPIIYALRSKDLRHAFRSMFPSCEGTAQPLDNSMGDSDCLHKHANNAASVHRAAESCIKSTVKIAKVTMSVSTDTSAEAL
Chain of recombinant human CB1 receptor expressed in CHO cells (P21554 whole entry): as above

Row | Compound | IC50 [1] [nM] | EC50 [2] [nM] | effect on memory deficit induced by Aβ-administration (mice) | effect on learning and memory performance (rodent models) | effect on cognition scores [3]
1 | CC(NC(=O)C(C)(C)Oc1ccc(Cl)cn1)C(Cc1ccc(Cl)cc1)c1ccsc1 (stereo not drawn) [Example I-59] | 7.28 | 14 |  |  | 
2 | CC(NC(=O)C(C)(C)Oc1ccc(C(F)(F)F)cn1)C(Cc1ccc(Cl)cc1)c1cc(C#N)c[n+]([O-])c1 (stereo not drawn) [Example I-64] | 29.4 | 13 |  |  | 
3 | CC(C)(F)[C@H](c1cc(F)cc(C#N)c1)C1CN([C@@H](c2ccc(C#N)cc2)c2cccc(C#N)c2)C1 [II] | 3 | 2 |  |  | 
4 | Cc1c(C(=O)NN2CCCCC2)nn(-c2ccc(Cl)cc2Cl)c1-c1ccc(Cl)cc1 [SR 141716] |  |  | improves the memory deficit |  | 
5 | Cc1c(C(=O)NN2CCCCC2)nn(-c2ccc(Cl)cc2Cl)c1-c1ccc(Cl)cc1 [rimonabant] |  |  |  | improves learning and memory performance | additive effects on cognition scores

The next lines start with results.

Row | IC50 [1] [nM] | EC50 [2] [nM] | Compound | effect on memory deficit induced by Aβ-administration (mice) | effect on learning and memory performance (rodent models) | effect on cognition scores [3]
6 | 0.45 | 1.33 | CC(NC(=O)C(C)(C)Oc1ccccn1)C(Cc1ccc(Cl)cc1)c1cc(F)cc(F)c1 (single isomer, unassigned) [Example I-25, N-[3-(4-Chloro-phenyl)-2-(3,5-difluorophenyl)-1-methylpropyl]-2-methyl-2-(2-pyridyloxy)-propanamide] |  |  | 
7 | 3 | 1.5 | CC(NC(=O)C(C)(C)Oc1ccc(C(F)(F)F)cn1)C(Cc1ccc(Cl)cc1)c1cncc(C#N)c1 (single isomer, unassigned) [Example I-39, N-[3-(4-Chloro-phenyl)-2-(5-cyano-3-pyridyl)-1-methylpropyl]-2-(5-trifluoromethyl-2-pyridyloxy)-2-methylpropanamide] |  |  | 
8 | 1.39 | 2 | CC(C)CC(c1cccc(C#N)c1)C(C)NC(=O)C(C)(C)Oc1ccc(C(F)(F)F)cn1 (single isomer, unassigned) [Example I-60, N-(2-(3-cyano-phenyl)-1,4-dimethylpentyl)-2-methyl-2((5-(trifluoromethyl)-pyridin-2-yl)oxy)-propanamide] |  |  | 
9 | 0.33 | 2 | CC(NC(=O)C(C)(C)Oc1ccc(C(F)(F)F)cn1)C(CC1CCCC1)c1cccc(C#N)c1 (single isomer, unassigned) [Example I-62, N-(2-(3-cyano-phenyl)-3-cyclopentyl-1-methylpropyl)-2-methyl-2((5-(trifluoromethyl)-pyridin-2-yl)oxy)-propanamide] |  |  | 
10 | 2.3 | 2.1 | CC(NC(=O)C(C)(C)Oc1ccccn1)C(Cc1ccc(Cl)cc1)c1ccccc1 (stereo not drawn) [Example I-6, N-[3-(4-Chloro-phenyl)-1-methyl-2-phenylpropyl]-2-(2-pyridyloxy)-2-methylpropanamide] |  |  | 
11 | 0.66 | 1.25 | CC(NC(=O)C(C)(C)Oc1cc(C(F)(F)F)ncn1)C(Cc1ccc(Cl)cc1)c1cccc(C#N)c1 (stereo not drawn) [Example I-36, N-[3-(4-Chloro-phenyl)-2-(3-cyanophenyl)-1-methylpropyl]-2-(6-trifluoromethyl-4-pyrimidyloxy)-2-methylpropanamide] |  |  | 
